Positions of bridges follow the written chain, without caps; N, C: chain ends. Non-standard residues stand in square brackets, D forms with d. Residues, ends and D or L forms follow the SMILES beside them. dPhe(4-Cl) = N[C@H](Cc1ccc(Cl)cc1)C(=O)O; Dip = N[C@H](C(=O)O)C(c1ccccc1)c1ccccc1; Ala(2-furyl) = N[C@@H](Cc1ccco1)C(=O)O; Pro(4R-NH2) = N[C@H]1CN[C@H](C(=O)O)C1; Arg(Me) = CNC(=N)NCCC[C@H](N)C(=O)O; Hyp = O=C(O)[C@@H]1C[C@@H](O)CN1; 2Thi = N[C@@H](Cc1cccs1)C(=O)O; Cba = N[C@@H](CC1CCC1)C(=O)O; S5 = C=CCCC[C@](C)(N)C(=O)O; Pip = O=C(O)[C@@H]1CCCCN1; Aze = O=C(O)[C@@H]1CCN1; azaGly = NNC(=O)O
What follows are molecules tested against T1, human kiss1 receptor (GPR54) (Homo sapiens, UniProt Q969F8) (assay: Kiss1 receptor (GPR54) binding activity of agonists, FRET detection in NFAT-bla CHO-K1 cells). Conditions: GPR54; measured according to the method of effect Embodiment 1; preliminary data; read-out: Preliminary measurement data (GPR54) EC50.
T1 construct: host or cells: NFAT-bla CHO-K1 cells (Chinese hamster ovary), purchased recombinant cell line
T1 sequence (Q969F8 whole entry): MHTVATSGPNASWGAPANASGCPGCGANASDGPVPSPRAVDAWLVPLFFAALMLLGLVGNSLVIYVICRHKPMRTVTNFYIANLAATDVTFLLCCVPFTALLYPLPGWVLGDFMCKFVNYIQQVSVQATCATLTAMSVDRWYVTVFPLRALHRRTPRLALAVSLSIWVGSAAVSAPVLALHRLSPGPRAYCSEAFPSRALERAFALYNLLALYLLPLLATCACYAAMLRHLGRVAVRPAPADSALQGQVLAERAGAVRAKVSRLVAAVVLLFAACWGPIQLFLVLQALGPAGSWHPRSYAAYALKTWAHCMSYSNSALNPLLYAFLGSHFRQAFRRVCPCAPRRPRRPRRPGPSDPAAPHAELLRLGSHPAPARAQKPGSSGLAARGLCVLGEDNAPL
Assay type: cell-based

Row | SMILES | EC50 [nM]
1 | CNC(=N)NCCC[C@H](NC(=O)[C@H](CC(C)C)NC(=O)NNC(=O)[C@H](Cc1ccccc1)NC(=O)[C@@H](NC(=O)[C@H](CC(N)=O)NC(=O)[C@@H]1CCCCN1C(=O)[C@@H](Cc1ccc(O)cc1)NC(C)=O)[C@@H](C)O)C(=O)N[C@@H](Cc1c[nH]c2ccccc12)C(N)=O [YA-85, Ac-D-Tyr-(S-Pip)-Asn-Thr-Phe-azaGly-Leu-Arg(Me)-Trp-NH2] (Ac-[dY][Pip]NTF[azaGly]L[Arg(Me)]W-NH2) | 0.026
2 | CNC(=N)NCCC[C@H](NC(=O)[C@H](CC(C)C)NC(=O)NNC(=O)[C@H](Cc1ccccc1)NC(=O)[C@@H](NC(=O)[C@H](CC(N)=O)NC(=O)[C@H](CC1CCC1)NC(=O)[C@@H](Cc1ccc(O)cc1)NC(C)=O)[C@@H](C)O)C(=O)N[C@@H](Cc1c[nH]c2ccccc12)C(N)=O [YA-380, Ac-(D-Tyr)-Cba-Asn-Thr-Phe-azaGly-Leu-Arg(Me)-Trp-NH2] (Ac-[dY][Cba]NTF[azaGly]L[Arg(Me)]W-NH2) | 0.191
3 | CCCCCCCCCCCCCCCC(=O)NCCOCCOCCOCCOCCOCCOCCOCCOCCC(=O)NCC(=O)NCC(=O)N[C@@H](Cc1ccc(O)cc1)C(=O)N[C@@H](CC(N)=O)C(=O)N[C@@H](Cc1c[nH]c2ccccc12)C(=O)N[C@@H](CC(N)=O)C(=O)N[C@@H](CO)C(=O)N[C@@H](Cc1ccccc1)C(=O)NCC(=O)N[C@@H](CC(C)C)C(=O)N[C@@H](CCCNC(=N)N)C(=O)N[C@@H](Cc1ccccc1)C(N)=O [YA-158, Palm-PEG8-Gly-Gly-Tyr-Asn-Trp-Asn-Ser-Phe-Gly-Leu-Arg-Phe-NH2] | 0.0478
4 | CNC(=N)NCCC[C@H](NC(=O)[C@H](CC(C)C)NC(=O)NNC(=O)[C@H](Cc1ccccc1)NC(=O)[C@@H](NC(=O)[C@H](CC(N)=O)NC(=O)[C@@H]1C[C@@H](O)CN1C(=O)[C@@H](NC(C)=O)C(c1ccccc1)c1ccccc1)[C@@H](C)O)C(=O)N[C@@H](Cc1c[nH]c2ccccc12)C(N)=O [YA-132, Ac-Ala(dip)-Hyp-Asn-Thr-Phe-azaGly-Leu-Arg(Me)-Trp-NH2] (Ac-[Dip][Hyp]NTF[azaGly]L[Arg(Me)]W-NH2) | 0.19
5 | CNC(=N)NCCC[C@H](NC(=O)[C@H](CC(C)C)NC(=O)NNC(=O)[C@H](Cc1ccccc1)NC(=O)[C@@H](NC(=O)[C@H](CC(N)=O)NC(=O)[C@@H]1C[C@@H](O)CN1C(=O)[C@@H](Cc1ccc(Cl)cc1)NC(C)=O)[C@@H](C)O)C(=O)N[C@@H](Cc1c[nH]c2ccccc12)C(N)=O [YA-214, Ac-[D-Phe(4-Cl)]-Hyp-Asn-Thr-Phe-azaGly-Leu-Arg(Me)-Trp-NH2] (Ac-[dPhe(4-Cl)][Hyp]NTF[azaGly]L[Arg(Me)]W-NH2) | 0.083
6 | CNC(=N)NCCC[C@H](NC(=O)[C@H](CC(C)C)NC(=O)[C@@H]1CCN1C(=O)[C@H](Cc1ccccc1)NC(=O)[C@H](Cc1ccco1)NC(=O)[C@H](CC(N)=O)NC(=O)[C@H](Cc1cccs1)NC(=O)[C@@H](Cc1ccc(O)cc1)NC(C)=O)C(=O)N[C@@H](Cc1c[nH]c2ccccc12)C(N)=O [YA-204, Ac-(D-Tyr)-Thi-Asn-2Fua-Phe-Aze-Leu-Arg(Me)-Trp-NH2] (Ac-[dY][2Thi]N[Ala(2-furyl)]F[Aze]L[Arg(Me)]W-NH2) | 8.72
7 | CNC(=N)NCCC[C@H](NC(=O)[C@H](CC(C)C)NC(=O)NNC(=O)[C@H](Cc1ccccc1)NC(=O)[C@@H](NC(=O)[C@H](CC(N)=O)NC(=O)[C@@H]1C[C@@H](O)CN1C(=O)[C@H](Cc1ccc(OC)cc1)NC(C)=O)[C@@H](C)O)C(=O)N[C@@H](Cc1c[nH]c2ccccc12)C(N)=O [YA-73, Ac-Tyr(Me)-Hyp-Asn-Thr-Phe-azaGly-Leu-Arg(Me)-Trp-NH2] (Ac-Y(Me)[Hyp]NTF[azaGly]L[Arg(Me)]W-NH2) | 1.32
8 | CC(=O)N[C@@H](Cc1ccc(O)cc1)C(=O)N[C@@H](CC(N)=O)C(=O)N[C@@H](Cc1c[nH]c2ccccc12)C(=O)N[C@@]1(C)CCCC=CCCC[C@@](C)(C(=O)N[C@@H](CCCNC(=N)N)C(=O)N[C@@H](Cc2ccccc2)C(N)=O)NC(=O)CNC(=O)[C@H](Cc2ccccc2)NC(=O)[C@H](CO)NC1=O [YA-146, Ac-Tyr-Asn-Trp-X-Ser-Phe-Gly-X-Arg-Phe-NH2 (stapled)] (Ac-YNW[S5]SFG[S5]RF-NH2; staple 4-8) | 545
9 | CNC(=N)NCCC[C@H](NC(=O)[C@H](CC(C)C)NC(=O)NNC(=O)[C@H](Cc1ccccc1)NC(=O)[C@@H](NC(=O)[C@H](CC(N)=O)NC(=O)[C@@H]1C[C@@H](N)CN1C(=O)[C@@H](Cc1ccc(O)cc1)NC(C)=O)[C@@H](C)O)C(=O)N[C@@H](Cc1c[nH]c2ccccc12)C(N)=O [YA-83, Ac-D-Tyr-Pro(4-NH2)-Asn-Thr-Phe-azaGly-Leu-Arg(Me)-Trp-NH2] (Ac-[dY][Pro(4R-NH2)]NTF[azaGly]L[Arg(Me)]W-NH2) | 0.008
